According to ChEMBL document CHEMBL1137050, “Design and synthesis of 4-phenyl piperidine compounds targeting the mu receptor” (Bioorg Med Chem Lett, 2004):

Assays:
Nociceptin receptor [1] = target: T1, Nociceptin receptor (Homo sapiens, UniProt P41146); assay: Binding affinity for opioid receptor like 1 expressed in HEK293 cells; type: cell-based
Mu-type opioid receptor = Mu-type opioid receptor (Homo sapiens, UniProt P35372); assay: Binding affinity for recombinant human mu-opioid receptor was determined by using [3H]- diprenophine radioligand
Nociceptin receptor [2] = target: T1, Nociceptin receptor; assay: Agonistic activity determined by ability to stimulate GTP gamma S binding in comparison to nociceptin (N/OFQ); parameters: concentration or dose not given beside the values
[3] = target: Nociceptin receptor (Rattus norvegicus) (UniProt P35370); assay: Agonistic activity by its ability to stimulate NOP in comparison to DAMGO; type: functional
Nociceptin receptor [4] = target: T1, Nociceptin receptor; assay: Partial agonistic activity determined by ability to stimulate GTP gamma S binding in comparison to nociceptin (N/OFQ)
[5] = target: Nociceptin receptor (Rattus norvegicus) (UniProt P35370); assay: Partial agonistic activity by its ability to stimulate NOP in comparison to DAMGO; type: functional
[6] = target: Nociceptin receptor (Rattus norvegicus) (UniProt P35370); assay: Partial Agonistic activity by its ability to stimulate NOP in comparison to DAMGO; type: functional
[7] = target: Mu opioid receptor (Rattus norvegicus) (UniProt P33535); assay: Partial agonistic activity by its ability to stimulate GTP gamma S binding in comparison to DAMGO
Sequence of Mu opioid receptor (Rattus norvegicus) (P33535 whole entry, looked up): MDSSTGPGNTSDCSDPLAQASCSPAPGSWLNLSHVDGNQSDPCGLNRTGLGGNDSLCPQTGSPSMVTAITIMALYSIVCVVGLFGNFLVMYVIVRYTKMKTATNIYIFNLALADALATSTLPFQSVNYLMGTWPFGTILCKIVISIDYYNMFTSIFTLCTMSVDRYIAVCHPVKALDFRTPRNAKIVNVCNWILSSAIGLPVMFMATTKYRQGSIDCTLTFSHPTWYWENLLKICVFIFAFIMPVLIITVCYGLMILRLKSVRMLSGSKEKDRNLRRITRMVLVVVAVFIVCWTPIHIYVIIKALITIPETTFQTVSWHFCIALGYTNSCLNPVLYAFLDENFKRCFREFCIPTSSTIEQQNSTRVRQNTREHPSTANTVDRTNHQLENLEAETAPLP

Sequence of Nociceptin receptor (Rattus norvegicus) (P35370 whole entry): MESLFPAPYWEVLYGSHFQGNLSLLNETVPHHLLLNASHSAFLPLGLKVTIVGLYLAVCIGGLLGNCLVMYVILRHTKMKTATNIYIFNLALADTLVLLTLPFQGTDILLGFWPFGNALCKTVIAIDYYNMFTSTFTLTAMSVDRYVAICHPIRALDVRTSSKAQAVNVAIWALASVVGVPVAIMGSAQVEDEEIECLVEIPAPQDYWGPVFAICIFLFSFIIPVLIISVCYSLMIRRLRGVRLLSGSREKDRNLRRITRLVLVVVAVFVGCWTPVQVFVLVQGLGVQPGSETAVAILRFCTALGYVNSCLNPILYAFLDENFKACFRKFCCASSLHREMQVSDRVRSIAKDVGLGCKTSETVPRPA
Sequence of Mu-type opioid receptor (P35372 whole entry): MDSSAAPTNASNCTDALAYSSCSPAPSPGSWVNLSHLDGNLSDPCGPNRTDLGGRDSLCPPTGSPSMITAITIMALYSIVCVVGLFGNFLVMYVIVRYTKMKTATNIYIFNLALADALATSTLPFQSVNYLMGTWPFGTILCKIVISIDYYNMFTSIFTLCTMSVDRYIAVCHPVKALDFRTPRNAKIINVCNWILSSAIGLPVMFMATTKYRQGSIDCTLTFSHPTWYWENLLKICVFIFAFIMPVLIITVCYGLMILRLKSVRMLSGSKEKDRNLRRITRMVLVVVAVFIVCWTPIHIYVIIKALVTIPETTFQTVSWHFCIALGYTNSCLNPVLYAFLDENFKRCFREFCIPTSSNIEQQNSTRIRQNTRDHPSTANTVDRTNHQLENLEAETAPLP
T1 sequence (P41146 whole entry): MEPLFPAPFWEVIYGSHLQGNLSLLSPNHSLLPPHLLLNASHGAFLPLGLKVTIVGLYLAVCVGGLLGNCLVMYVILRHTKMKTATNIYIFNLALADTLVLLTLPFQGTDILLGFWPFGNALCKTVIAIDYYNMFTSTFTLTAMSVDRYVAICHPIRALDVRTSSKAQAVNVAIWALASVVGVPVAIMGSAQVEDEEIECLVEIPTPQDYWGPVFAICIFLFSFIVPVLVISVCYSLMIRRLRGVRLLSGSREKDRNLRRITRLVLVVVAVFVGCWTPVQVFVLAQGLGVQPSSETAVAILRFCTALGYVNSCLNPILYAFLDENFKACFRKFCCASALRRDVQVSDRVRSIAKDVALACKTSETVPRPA

SMILES	Ki (Nociceptin receptor [1]) [nM]	Ki (Mu-type opioid receptor) [nM]	Activity (Nociceptin receptor [2]) [%]	other results
O=C(O)C(CCN1CCC(O)(c2cccc(C(F)(F)F)c2)CC1)(c1ccccc1)c1ccccc1	> 10000	331	> 75	
CN(C)C(=O)C(CCN1CCC(O)(c2cccc(C(F)(F)F)c2)CC1)(c1ccccc1)c1ccccc1	505	0.16	> 75	Activity [3]: > 75%
OC1(c2ccc(Cl)c(C(F)(F)F)c2)CCN(Cc2ccc(C(F)(F)F)cc2)CC1		104		Activity (Nociceptin receptor [4]): > 10%
OC1(c2ccc(Cl)c(C(F)(F)F)c2)CCN(Cc2ccc3ccccc3c2)CC1		2.5		Activity [5]: > 10%
O=C(O)C(CCN1CCC(O)(c2ccc(Cl)cc2)CC1)(c1ccccc1)c1ccccc1	> 10000		> 75	
O=C(O)C(CCN1CCC(O)(c2ccc(Cl)c(C(F)(F)F)c2)CC1)(c1ccccc1)c1ccccc1	> 10000	489	> 75	
CN(C)C(=O)C(CCN1CCC(O)(c2ccc(Cl)cc2)CC1)(c1ccccc1)c1ccccc1 [LOPERAMIDE]	> 10000		> 75	
[O-][N+]1(CCC(c2ccccc2)c2ccccc2)CCC(O)(c2cccc(C(F)(F)F)c2)CC1 (stereo not drawn)	> 10000	8130		
COC(=O)C(CCN1CCC(O)(c2ccc(Cl)cc2)CC1)(c1ccccc1)c1ccccc1	590	0.23	> 75	Activity [3]: > 75%
CN(C)C(=O)C(CCN1CCC(O)(c2ccc(Cl)c(C(F)(F)F)c2)CC1)(c1ccccc1)c1ccccc1 [FLUPERAMIDE]	2150	0.11	> 75	
[O-][N+]1(Cc2ccc3ccccc3c2)CCC(O)(c2ccc(Cl)c(C(F)(F)F)c2)CC1 (stereo not drawn)	> 10000	> 10000		
[O-][N+]1(CCC(c2ccccc2)c2ccccc2)CCC(O)(c2ccc(Cl)c(C(F)(F)F)c2)CC1 (stereo not drawn)	> 10000	> 10000		
N#Cc1ccc(CN2CCC(O)(c3ccc(Cl)c(C(F)(F)F)c3)CC2)cc1		> 10000		
OC1(c2cccc(C(F)(F)F)c2)CCN(CCC(c2ccccc2)c2ccccc2)CC1			> 75	Activity [3]: > 75%
COC(=O)C(CCN1CCC(O)(c2cccc(C(F)(F)F)c2)CC1)(c1ccccc1)c1ccccc1	78	0.11	> 75	Activity [3]: > 75%
COC(=O)C(CCN1CCC(O)(c2ccc(Cl)c(C(F)(F)F)c2)CC1)(c1ccccc1)c1ccccc1	149	0.3	> 75	Activity [3]: > 75%
OC1(c2ccc(Cl)cc2)CCN(CCC(c2ccccc2)c2ccccc2)CC1	372	37		Activity [6]: > 10%; Activity (Nociceptin receptor [4]): > 10%
OC1(c2ccc(Cl)c(C(F)(F)F)c2)CCN(CCC(c2ccccc2)c2ccccc2)CC1			> 75	Activity [7]: > 10%
